Patent US20260256790A1, “DEBIO-0123 IN COMBINATION WITH TEMOZOLOMIDE AND RADIOTHERAPY FOR USE IN TREATING GLIOMA” (Debiopharm International S.A., priority 2023, published 2026)

Key:
[1] = tested on: SNB-19 GBM cell line; assay: Colony formation with radiotherapy, SNB-19; assay type: cell-based; conditions: SNB19; 0.1 μM to 5.0 μM; irradiated at 1, 2 and 4 Gy; p<0.0001
Method: GBM tumor cells (T98G, LN18, SNB-19 and U251) were grown as an adherent monolayer at 37° C. in a humidified atmosphere (5% CO2, 95% air). For experimental use, tumor cells were detached from culture flasks by a 5-minute treatment with trypsin-versene, in Hanks' medium without calcium or magnesium and neutralized by addition of complete culture medium. Cells were counted and viability assessed using a 0.25% trypan blue exclusion assay. All cell lines were appropriately seeded following the conditions for monolayer colony formation in 6-well plates (Ref #152795, Nunc, Dutscher) in 1.9 ml of cell culture medium, at 3 densities for evaluation of a proclonogenic effect. […]
Treatments were performed at 24 hours (D1) after seeding by addition of ×20 concentrated compound or vehicle solutions, to obtain final concentrations of 0.1 μM to 5.0 μM of Compound of formula (I) [referred to as CoF (I) in FIG. 3]. […] After 14 days of incubation, colonies were counted after being stained through incubation with 500 μl of a solution of water containing 0.05% (w/v) of methylene blue (Ref. M4159, Sigma) for 2 hours. Colonies were counted using a colony counter pen (Ref #045855, Dutscher, Brumath, France). The Surviving Fraction was calculated for each condition using the equations described below and plotted on a semi-logarithmic graph using the Linear-Quadratic model. […]

[2] = tested on: SF188 cells; assay: Colony formation assay in SF188 cells; assay type: cell-based; conditions: up to 400 nM, 10 days post-treatment
Method: SF188 cells were transfected with ATRX siRNA (siATRX_1 or siATRX_2) either individually (A) or as a pool (B and C) or control siRNA (siCon) and ATRX deficiency assessed by determining relative ATRX protein levels by western blotting. Control and ATRX-deficient SF188 cells were then treated with compound of formula (I) at a range of concentrations between 0 and 1.5 uM (FIG. 7A) and at 400 nM (FIG. 7B) and drug sensitivities were assessed via an ATP-based cell viability assay or in colony formation assay.
For cell viability assessment, SF188 cells were seeded in 96-well culture plates at 100-500 cells in 100 μl of culture media per well. After overnight incubation, 100 μl of culture media containing compound of formula (I) was added to each well at the desired final concentration. After 72 h, cell viability was assessed by CellTiter-Glo 2.0 according to the manufacturer's instructions. Each condition was tested in triplicate or quadruplicate, and the average viability is presented as a percentage of vehicle-treated cells. For colony formation assessment (FIG. 7C), SF188 cells were seeded on a 6-well plate at 100 cells per well in 1 ml of culture media. […] The number of colonies in each well was counted manually. […] Colony-forming efficiency was determined by normalizing the colony numbers to the vehicle-treated cells.

## Cc1cc(Nc2ncc3c(n2)N(C)CN(c2c(Cl)cccc2Cl)C3=O)ccc1C1CCN(C)CC1 [Compound of formula (I)]
[1]
  Effect on radiotherapy (surviving fraction, colony formation): significantly increased effect of radiotherapy
[2]
  Surviving fraction of cells, colony formation assay: significantly reduced the surviving fraction of cells
